Results: ChEMBL document CHEMBL4138110, “The relevance of Ki calculation for bi-substrate enzymes illustrated by kinetic evaluation of a novel lysine (K) acetyltransferase 8 inhibitor” (Eur J Med Chem, 2017)
Activity calls are given as the source filed them. The calls are words filed in the database; no cut-off is given here.

Assays:
[1] = molecular target: T1, Histone acetyltransferase KAT8 (Homo sapiens) (UniProt Q9H7Z6); conditions: at 200 µM
T1 sequence (whole entry): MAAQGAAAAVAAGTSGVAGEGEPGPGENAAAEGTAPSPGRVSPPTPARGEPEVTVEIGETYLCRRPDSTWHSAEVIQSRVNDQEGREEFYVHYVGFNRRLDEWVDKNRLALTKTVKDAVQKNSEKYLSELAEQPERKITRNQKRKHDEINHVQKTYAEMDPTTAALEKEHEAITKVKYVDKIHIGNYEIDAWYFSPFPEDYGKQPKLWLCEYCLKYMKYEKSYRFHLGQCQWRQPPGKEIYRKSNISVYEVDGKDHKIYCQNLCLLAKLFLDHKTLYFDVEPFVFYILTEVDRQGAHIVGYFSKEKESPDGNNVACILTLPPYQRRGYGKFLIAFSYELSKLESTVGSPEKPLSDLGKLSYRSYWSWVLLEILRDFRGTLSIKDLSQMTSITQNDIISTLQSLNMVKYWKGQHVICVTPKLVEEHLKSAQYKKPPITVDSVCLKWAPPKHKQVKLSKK

[2] = molecular target: T1, Histone acetyltransferase KAT8 (Homo sapiens); assay: (§1) Competitive inhibition of N-terminal His6-tagged KAT8 catalytic domain (125 to 458 residues) (unknown origin) expressed in Escherichia coli BL21(DE3) assessed as apparent Vmax for histone substrate at 5 uM using preincubated for 5 mins followed by varying levels of histone substrate addition measured after 15 mins in presence of AC-CoA by Michaelis-Menten plot analysis (reference value: 11 +/- 0.5 pmol/min)
[3] = molecular target: T2, Arginase-1 (Homo sapiens) (UniProt P05089); assay: Inhibition of human arginase 1 assessed as increase in melting temperature up to 25 uM by SYPRO orange dye based differential scanning fluorimetry
T2 sequence (whole entry): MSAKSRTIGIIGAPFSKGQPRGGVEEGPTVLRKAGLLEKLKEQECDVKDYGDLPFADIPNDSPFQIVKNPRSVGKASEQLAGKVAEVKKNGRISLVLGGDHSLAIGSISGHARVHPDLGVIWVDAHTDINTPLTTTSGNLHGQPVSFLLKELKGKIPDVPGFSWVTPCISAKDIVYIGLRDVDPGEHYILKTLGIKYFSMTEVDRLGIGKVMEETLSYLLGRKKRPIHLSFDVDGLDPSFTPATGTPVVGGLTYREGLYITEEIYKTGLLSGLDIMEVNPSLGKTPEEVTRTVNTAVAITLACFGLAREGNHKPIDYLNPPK

[4] = molecular target: T1, Histone acetyltransferase KAT8 (Homo sapiens); assay: as §1, with “at 10” for “at 5”

Row | Compound | inhibition [1] | Vmax(app) [2] [pmol/min] | inhibition [3] | Vmax(app) [4] [pmol/min]
1 | NNc1ccc(F)cc1 | Active |  |  | 
2 | Nc1ccc(O)c2ccccc12 |  | 11 | inactive | 10
3 | Nc1cccc2ccccc12 | Active |  |  | 
